We go through two molecules from patent publication US10968200B2, “Salts of an LSD1 inhibitor and processes for preparing the same” (priority 2018, dated 2021).

Structures can show the parent of a compound that is named as a salt. Bounds are passed on as bounds.

Data set [1] concerns the target T1, LSD-1 enzyme (LSD1/KDM1A) (Homo sapiens, UniProt O60341).
T1 construct: purchased ENZO BML-SE544-0050
Description: LANCE LSD1/KDM1A histone demethylase biochemical assay. The following applies: 1 nM LSD-1 enzyme, 1 hour preincubation at 25° C., Biotin-labeled Histone H3 peptide substrate. Here is the method:
LANCE LSD1/KDM1A demethylase assay-10 μL of 1 nM LSD-1 enzyme (ENZO BML-SE544-0050) in the assay buffer (50 mM Tris, pH 7.5, 0.01% Tween-20, 25 mM NaCl, 5 mM DTT) were preincubated for 1 hour at 25° C. with 0.8 μL compound/DMSO dotted in black 384 well polystyrene plates. Reactions were started by addition of 10 μL of assay buffer containing 0.4 μM Biotin-labeled Histone H3 peptide substrate: ART-K(Me1)-QTARKSTGGKAPRKQLA-GGK(Biotin) SEQ ID NO:1 (AnaSpec 64355) and incubated for 1 hour at 25° C. Reactions were stopped by addition of 10 μL 1× LANCE Detection Buffer (PerkinElmer CR97-100) supplemented with 1.5 nM Eu-anti-unmodified H3K4 Antibody (PerkinElmer TRF0404), and 225 nM LANCE Ultra Streptavidin (PerkinElmer TRF102) along with 0.9 mM Tranylcypromine-HCl (Millipore 616431). After stopping the reactions plates were incubated for 30 minutes and read on a PHERAstar FS plate reader (BMG Labtech).

The nature of data set [2]: Competitive slurry experiment, stability relationship between Forms II-V. The class given is physicochemical. The following applies: competitive slurry of Forms II-V in methanol, 23-25° C., 65-75% humidity, XRPD after 4 h and 20 h. The method, then: The transformation of Compound 1 di-HCl solid forms was evaluated in competitive slurry experiments in methanol at 23-25° C. and 65-75% humidity. The experiments were performed with a mixture of four polymorphs (Form II through Form V), according to the following procedure.
10.0 mg of Compound 1 di-HCl Form II was added to a saturated solution of Compound 1 di-HCl Form II in methanol (1.0 mL) and stirred to give a thin slurry. A mixture of Form III (10.29 mg), Form IV (10.39 mg), and Form V (10.95 mg) were added to the slurry. The mixture was stirred for 4 h at 25° C.
A portion of the mixture was filtered after 4 h. The filtered solids were analyzed by XRPD and determined to be Form II in addition to a minor amount of amorphous solid.
A portion of the mixture was filtered after 20 h. The filtered solids were analyzed by XRPD and determined to be Form II in addition to a minor amount of amorphous solid. The sample was then dried under vacuum at 46-48° C. for 36 h. The dried solids were analyzed by XRPD and determined to be Form II.

A word on the IC50: it is the concentration that gives 50% inhibition. A lower IC50 goes with inhibition by little substance.

`N#CCC1(N2CCC(N[C@@H]3C[C@H]3c3ccccc3)CC2)CN(S(N)(=O)=O)C1` [Compound 1, 3-(cyanomethyl)-3-(4-{[(1R,2S)-2-phenylcyclopropyl]amino}piperidin-1-yl)azetidine-1-sulfonamide] registered an IC50 in data set [1] of no more than 100 nM. Turning to `N#CCC1(N2CCC(N[C@@H]3C[C@H]3c3ccccc3)CC2)CN(S(N)(=O)=O)C1` [Form II, 3-(cyanomethyl)-3-(4-{[(1R,2S)-2-phenylcyclopropyl]amino}piperidin-1-yl)azetidine-1-sulfonamide dihydrochloride], the “relative stability of solid forms” value in data set [2] was “most stable form”.
